The source of these data is EPA's ToxValDB 9.5 (doi:10.2903/j.efsa.2016.4515).

In one data set the test system is Folsomia candida. As to conditions: chronic/long-term; mortality.
The subject of a further data set is Anas platyrhynchos. To be noted: chronic/long-term.
Another data set deals with Colinus virginianus. As to conditions: acute, oral, mortality.
In the next data set the test system is Bibionidae. As to conditions: chronic/long-term, other.
For the next data set, the system named is Apis mellifera. As to conditions: acute, mortality.
The subject of a further data set is Neomysis kadiakensis. As to conditions: chronic/long-term; duration: 28 days; reproduction.
Another data set relates to Aphidius rhopalosiphi. Briefly: LR50; higher = less toxic. To be noted: not reported; other.

Values after ≈ are worked out from the molar mass of the structure shown. Bounds are passed on as bounds.

With `CO/C=C(/C(=O)OC)c1ccccc1COc1cccc(C(F)(F)F)n1` [Picoxystrobin], the NOEC with Folsomia candida was 12.5 mg/kg; with Tagia sp. (chronic/long-term, reproduction) it was 0.315 mg/kg; with Bibionidae (duration: 21 days) it was 0.0084 mg/L; in the data set with Bibionidae (duration: 28 days), 5 mg/kg; in the data set on Oncorhynchus mykiss (chronic/long-term, duration: 28 days, growth), 0.01 mg/L; in the data set with Neomysis kadiakensis, 0.0036 mg/L. The NOEL with Anas platyrhynchos was 110 mg/kg-day. In addition, the LD50 in the data set with Colinus virginianus (diet) was greater than 1770 mg/kg-day; with Colinus virginianus, greater than 2250 mg/kg; in the data set with Apis mellifera (dermal) it was greater than 200 µg/piece; in the data set with Apis mellifera (oral, unspecified), greater than 200 µg/piece; in the data set on Rattus norvegicus (acute, mortality), greater than 5000 mg/kg. Further, the LC50 with Tagia sp. (acute, mortality) was determined as 3.35 mg/kg; with Oncorhynchus mykiss (acute, duration: 96 hours, mortality), 0.05 µg/mL (≈ 0.136 µM). The NOAEL – broadly, the highest dose or exposure tested at which no adverse effect was seen – in the data set on Rattus norvegicus (chronic) amounted to 21.8 mg/kg-day. The LR50 with Aphidius rhopalosiphi stood at 0.675 g/ha.
